# From article PMC9324412 (Viruses, 2022)
# Legend:
# HIV-1 pNL4-3 WT = test: Late-stage single replication cycle antiviral assay, WT virus; type: cell-based; conditions: Human immunodeficiency virus 1, TZM-bl, read-out: WT-IC50 (antiviral activity)
# [1] = test system: HIV-1 pNL4-3 A128T IN mutant; test: Late-stage single replication cycle antiviral assay, A128T IN mutant virus; type: cell-based; conditions: Human immunodeficiency virus 1, TZM-bl, read-out: A128T-IC50 (antiviral activity)
SMILES,IC50 (HIV-1 pNL4-3 WT) [nM],IC50 [1] [nM]
Cc1nc2ccccc2c(-c2ccc3c(c2)OCCO3)c1C(OC(C)(C)C)C(=O)O (stereo not drawn) [Compound 2],700 ± 100,1100 ± 200
Cc1nc2ccc(Br)cc2c(-c2ccc3c(c2)OCCO3)c1C(OC(C)(C)C)C(=O)O (stereo not drawn) [Compound 17],300 ± 100,10200 ± 2500
Cc1nc2c(Br)cccc2c(-c2ccc3c(c2)OCCO3)c1C(OC(C)(C)C)C(=O)O (stereo not drawn) [Compound 16ba],600 ± 100,300 ± 100
